Reference: ChEMBL document CHEMBL5705899 (Biochem J, 2014)
Active and inactive are the calls of the source. The calls are words filed in the database; no cut-off is given here.

Legend:
[1] = target: Serine/threonine-protein kinase pim-3 (Homo sapiens) (UniProt Q86V86); test: Inhibition of recombinant human N-terminal His6-tagged PIM3 (2 to 326 residues) expressed in baculovirus infected Sf21 cells assessed as remaining activity at 1 uM using RSRHSSYPAGT as substrate incubated for 30 mins in presence of [gamma-33P]ATP by filter binding method relative to control
[2] = target: Calcium/calmodulin-dependent protein kinase type II subunit beta (Homo sapiens) (UniProt Q13554); test: Inhibition of human CAMK2B at 1 uM using RBER-CHKtide as substrate in presence of 33P-ATP by ProQinase assay
[3] = target: Phosphatidylinositol 4,5-bisphosphate 3-kinase catalytic subunit beta isoform (Homo sapiens, UniProt P42338); test: Inhibition of PI3Kbeta (unknown origin) using PtdIns(4,5)P2 as substrate preincubated for 20 mins followed by substrate addition and measured after 80 mins by Kinase-Glo assay
[4] = target: Activin receptor type-1 (Homo sapiens) (UniProt Q04771); test: Inhibition of human ACVR1 at 1 uM using RBER-GSK3 as substrate in presence of 33P-ATP by ProQinase assay
[5] = target: Ephrin type-B receptor 1 (Homo sapiens) (UniProt P54762); test: Inhibition of recombinant human N-terminal His6-tagged EPHB1 (565 to 984 residues) expressed in baculovirus infected Sf21 cells assessed as remaining activity at 1 uM using Poly (Glu,Tyr) as substrate incubated for 30 mins in presence of [gamma-33P]ATP by filter binding method relative to control
[6] = target: Protein kinase C gamma type (Homo sapiens) (UniProt P05129); test: Inhibition of human PKCgamma at 1 uM using 3xChocktide-PKC as substrate in presence of 33P-ATP by ProQinase assay
[7] = target: Phosphatidylinositol 4-kinase type 2-alpha (Homo sapiens, UniProt Q9BTU6); test: Inhibition of PI4K2alpha (unknown origin) at 1 uM
[8] = target: Tyrosine-protein kinase CSK (Homo sapiens) (UniProt P41240); test: Inhibition of recombinant human N-terminal GST-tagged CSK (1 to 450 residues) expressed in Escherichia coli assessed as remaining activity at 1 uM Cdc2 peptide as substrate incubated for 30 mins in presence of [gamma-33P]ATP by filter binding method relative to control
[9] = target: Serine/threonine-protein kinase B-raf (Homo sapiens) (UniProt P15056); test: Inhibition of human BRAF at 1 uM using MEK1-K97M as substrate in presence of 33P-ATP by ProQinase assay
[10] = target: Serine/threonine-protein kinase pim-2 (Homo sapiens) (UniProt Q9P1W9); test: Inhibition of recombinant human N-terminal GST-tagged PIM2 (2 to 334 residues) expressed in Escherichia coli assessed as remaining activity at 1 uM using RSRHSSYPAGT as substrate incubated for 30 mins in presence of [gamma-33P]ATP by filter binding method relative to control
[11] = target: Diacylglycerol kinase beta (Homo sapiens) (UniProt Q9Y6T7); test: Inhibition of DGKbeta (unknown origin) at 1 uM
[12] = target: Tyrosine-protein kinase BTK (Homo sapiens) (UniProt Q06187); test: Inhibition of human BTK at 1 uM using polyEY as substrate in presence of 33P-ATP by ProQinase assay
[13] = target: Dual specificity protein kinase CLK1 (Homo sapiens) (UniProt P49759); test: Inhibition of human CLK1 at 1 uM using autophos as substrate in presence of 33P-ATP by ProQinase assay
[14] = target: Fibroblast growth factor receptor 4 (Homo sapiens) (UniProt P22455); test: Inhibition of human FGFR4 at 1 uM using polyEy as substrate in presence of 33P-ATP by ProQinase assay
[15] = target: Phosphatidylinositol 4,5-bisphosphate 3-kinase catalytic subunit gamma isoform (Homo sapiens, UniProt P48736); test: Inhibition of recombinant human N-terminal His6-tagged PI3Kgamma (2 to 1102 residues) expressed in baculovirus expression system at 1 uM using diC8 PIP2 as substrate incubated for 75 mins by ADP-Glo assay
[16] = target: Phosphorylase b kinase gamma catalytic chain, liver/testis isoform (Homo sapiens) (UniProt P15735); test: Inhibition of human PHKG2 at 1 uM using RBER-CHKtide as substrate in presence of 33P-ATP by ProQinase assay
[17] = target: Serine/threonine-protein kinase Nek3 (Homo sapiens) (UniProt P51956); test: Inhibition of human NEK3 at 1 uM using RBER-CHKtide as substrate in presence of 33P-ATP by ProQinase assay
[18] = target: Interleukin-1 receptor-associated kinase 4 (Homo sapiens) (UniProt Q9NWZ3); test: Inhibition of human IRAK4 at 1 uM using RB-CTF as substrate in presence of 33P-ATP by ProQinase assay
[19] = target: Dual specificity tyrosine-phosphorylation-regulated kinase 2 (Homo sapiens) (UniProt Q92630); test: Inhibition of recombinant human N-terminal GST-tagged DYRK2 (3 to 528 residues) expressed in Escherichia coli assessed as remaining activity at 1 uM using KKISGRLSPIMTEQ as substrate incubated for 30 mins in presence of [gamma-33P]ATP by filter binding method relative to control
[20] = target: Beta-adrenergic receptor kinase 1 (Homo sapiens) (UniProt P25098); test: Inhibition of human GRK2 at 1 uM using casein as substrate in presence of 33P-ATP by ProQinase assay
[21] = target: Serine/threonine-protein kinase Nek1 (Homo sapiens) (UniProt Q96PY6); test: Inhibition of human NEK1 at 1 uM using RBER-CHKtide as substrate in presence of 33P-ATP by ProQinase assay
[22] = target: Receptor-interacting serine/threonine-protein kinase 2 (Homo sapiens) (UniProt O43353); test: Inhibition of recombinant human N-terminal GST-tagged RIPK2 (2 to 311 residues) expressed in baculovirus infected Sf21 cells assessed as remaining activity at 1 uM using MBP as substrate incubated for 30 mins in presence of [gamma-33P]ATP by filter binding method relative to control
[23] = target: Serine/threonine-protein kinase PAK 4 (Homo sapiens) (UniProt O96013); test: Inhibition of recombinant human N-terminal GST-tagged PAK4 (2 to 519 residues) expressed in Escherichia coli assessed as remaining activity at 1 uM using RRRLSFAEPG as substrate incubated for 30 mins in presence of [gamma-33P]ATP by filter binding method relative to control
[24] = target: Serine/threonine-protein kinase Nek4 (Homo sapiens) (UniProt P51957); test: Inhibition of human NEK4 at 1 uM using MBP as substrate in presence of 33P-ATP by ProQinase assay
[25] = target: PI3K p110 beta/p85 alpha (Homo sapiens, UniProt P42338); test: Inhibition of human PIK3CB/PIK3R1 using PIP2/PS as substrate by ADP-Glo assay; format: protein-complex assay

Chain of Activin receptor type-1 (Homo sapiens) (Q04771 whole entry, the tested form may be a part): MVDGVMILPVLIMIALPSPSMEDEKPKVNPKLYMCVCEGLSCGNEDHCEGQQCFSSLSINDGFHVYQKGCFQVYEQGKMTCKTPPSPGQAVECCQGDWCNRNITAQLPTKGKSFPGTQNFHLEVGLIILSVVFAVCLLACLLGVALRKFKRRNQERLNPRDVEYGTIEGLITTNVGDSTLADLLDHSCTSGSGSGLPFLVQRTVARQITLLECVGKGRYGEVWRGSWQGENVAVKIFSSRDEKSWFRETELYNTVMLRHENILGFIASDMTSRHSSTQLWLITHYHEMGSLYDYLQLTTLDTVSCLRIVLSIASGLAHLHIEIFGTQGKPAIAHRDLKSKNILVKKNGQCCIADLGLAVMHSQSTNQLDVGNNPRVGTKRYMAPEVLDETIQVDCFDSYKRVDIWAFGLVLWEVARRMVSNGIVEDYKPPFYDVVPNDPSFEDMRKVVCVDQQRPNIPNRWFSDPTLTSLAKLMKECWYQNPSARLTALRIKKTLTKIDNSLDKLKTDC
Chain of Phosphatidylinositol 4,5-bisphosphate 3-kinase catalytic subunit beta isoform (P42338 whole entry, canonical isoform): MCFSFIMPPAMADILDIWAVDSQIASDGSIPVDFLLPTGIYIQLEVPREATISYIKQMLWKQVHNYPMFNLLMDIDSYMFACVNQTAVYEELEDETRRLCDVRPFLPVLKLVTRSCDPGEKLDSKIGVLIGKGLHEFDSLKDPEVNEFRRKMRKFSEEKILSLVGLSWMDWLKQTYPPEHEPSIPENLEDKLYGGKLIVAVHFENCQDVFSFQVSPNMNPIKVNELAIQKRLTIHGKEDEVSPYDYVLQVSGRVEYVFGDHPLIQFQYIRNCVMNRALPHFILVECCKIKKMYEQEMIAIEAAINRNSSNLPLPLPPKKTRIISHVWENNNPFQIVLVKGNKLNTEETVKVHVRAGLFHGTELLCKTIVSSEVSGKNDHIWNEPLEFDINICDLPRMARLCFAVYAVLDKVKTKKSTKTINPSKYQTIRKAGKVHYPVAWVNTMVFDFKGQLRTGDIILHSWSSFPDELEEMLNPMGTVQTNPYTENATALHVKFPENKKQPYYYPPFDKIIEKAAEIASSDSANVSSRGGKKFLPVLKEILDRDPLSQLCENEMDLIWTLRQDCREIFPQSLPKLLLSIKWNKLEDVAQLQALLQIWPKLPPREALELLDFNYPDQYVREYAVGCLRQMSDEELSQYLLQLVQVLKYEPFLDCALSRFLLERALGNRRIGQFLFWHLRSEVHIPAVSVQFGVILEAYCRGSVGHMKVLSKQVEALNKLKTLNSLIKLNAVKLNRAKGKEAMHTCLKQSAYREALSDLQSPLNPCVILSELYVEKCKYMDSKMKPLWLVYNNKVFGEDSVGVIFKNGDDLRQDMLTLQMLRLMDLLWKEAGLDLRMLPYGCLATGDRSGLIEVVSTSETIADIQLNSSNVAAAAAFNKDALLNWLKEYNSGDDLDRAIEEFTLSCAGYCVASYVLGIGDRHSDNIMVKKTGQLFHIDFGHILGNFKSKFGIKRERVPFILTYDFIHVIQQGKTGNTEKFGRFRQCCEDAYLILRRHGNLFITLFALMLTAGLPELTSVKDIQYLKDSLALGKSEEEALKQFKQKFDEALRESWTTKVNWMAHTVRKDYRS
Chain of Tyrosine-protein kinase CSK (Homo sapiens) (P41240 2-450 limits assumed): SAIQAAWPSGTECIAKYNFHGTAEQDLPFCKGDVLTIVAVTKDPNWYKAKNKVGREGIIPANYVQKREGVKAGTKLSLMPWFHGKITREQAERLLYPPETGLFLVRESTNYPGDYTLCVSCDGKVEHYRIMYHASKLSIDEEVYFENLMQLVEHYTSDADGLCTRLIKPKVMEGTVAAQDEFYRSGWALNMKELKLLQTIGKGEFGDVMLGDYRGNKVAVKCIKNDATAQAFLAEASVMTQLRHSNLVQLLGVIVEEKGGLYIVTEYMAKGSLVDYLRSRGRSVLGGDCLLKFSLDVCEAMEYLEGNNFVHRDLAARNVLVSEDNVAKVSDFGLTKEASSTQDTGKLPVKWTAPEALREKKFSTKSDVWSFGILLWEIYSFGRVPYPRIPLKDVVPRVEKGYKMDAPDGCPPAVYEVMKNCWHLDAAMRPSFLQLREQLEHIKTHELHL
Chain of Serine/threonine-protein kinase Nek3 (Homo sapiens) (P51956 whole entry): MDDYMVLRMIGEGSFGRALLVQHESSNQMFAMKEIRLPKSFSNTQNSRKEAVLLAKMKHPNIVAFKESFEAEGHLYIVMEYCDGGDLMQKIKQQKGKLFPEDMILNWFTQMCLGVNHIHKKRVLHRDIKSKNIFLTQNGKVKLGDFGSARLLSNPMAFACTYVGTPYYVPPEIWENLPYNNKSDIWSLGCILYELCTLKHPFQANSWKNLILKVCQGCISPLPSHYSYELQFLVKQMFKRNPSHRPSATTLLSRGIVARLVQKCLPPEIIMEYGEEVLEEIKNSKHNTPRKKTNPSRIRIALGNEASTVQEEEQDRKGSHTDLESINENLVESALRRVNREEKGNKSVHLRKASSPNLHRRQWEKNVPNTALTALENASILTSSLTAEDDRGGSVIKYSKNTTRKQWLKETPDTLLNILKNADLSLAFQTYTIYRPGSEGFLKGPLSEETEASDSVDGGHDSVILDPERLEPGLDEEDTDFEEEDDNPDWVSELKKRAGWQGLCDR
Chain of Serine/threonine-protein kinase pim-2 (Homo sapiens) (Q9P1W9 whole entry, looked up, the tested form may be a part): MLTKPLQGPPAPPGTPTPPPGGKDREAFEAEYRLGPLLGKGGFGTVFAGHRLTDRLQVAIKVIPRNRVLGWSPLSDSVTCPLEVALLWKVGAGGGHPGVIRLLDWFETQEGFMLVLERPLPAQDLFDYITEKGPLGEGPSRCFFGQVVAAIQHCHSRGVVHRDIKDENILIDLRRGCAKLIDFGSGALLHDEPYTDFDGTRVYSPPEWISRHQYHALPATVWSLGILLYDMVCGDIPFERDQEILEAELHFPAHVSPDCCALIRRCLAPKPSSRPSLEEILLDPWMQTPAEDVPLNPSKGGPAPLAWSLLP
Chain of Receptor-interacting serine/threonine-protein kinase 2 (Homo sapiens) (O43353 whole entry, the tested form may be a part): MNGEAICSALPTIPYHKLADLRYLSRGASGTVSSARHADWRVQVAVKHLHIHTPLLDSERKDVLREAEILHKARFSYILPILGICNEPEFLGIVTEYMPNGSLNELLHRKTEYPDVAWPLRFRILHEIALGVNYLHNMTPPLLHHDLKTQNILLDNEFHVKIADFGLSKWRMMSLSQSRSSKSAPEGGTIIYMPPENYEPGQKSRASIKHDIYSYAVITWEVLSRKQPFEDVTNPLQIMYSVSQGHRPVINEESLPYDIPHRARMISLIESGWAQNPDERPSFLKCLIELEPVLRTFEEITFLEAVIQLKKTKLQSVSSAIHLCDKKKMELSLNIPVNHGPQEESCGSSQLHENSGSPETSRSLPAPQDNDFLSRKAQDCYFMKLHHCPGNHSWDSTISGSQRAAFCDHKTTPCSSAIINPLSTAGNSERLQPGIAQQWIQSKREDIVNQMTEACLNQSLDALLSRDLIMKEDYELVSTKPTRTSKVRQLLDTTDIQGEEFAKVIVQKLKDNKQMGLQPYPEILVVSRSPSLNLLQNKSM
Chain of Phosphatidylinositol 4-kinase type 2-alpha (Q9BTU6 whole entry, the tested form may be a part): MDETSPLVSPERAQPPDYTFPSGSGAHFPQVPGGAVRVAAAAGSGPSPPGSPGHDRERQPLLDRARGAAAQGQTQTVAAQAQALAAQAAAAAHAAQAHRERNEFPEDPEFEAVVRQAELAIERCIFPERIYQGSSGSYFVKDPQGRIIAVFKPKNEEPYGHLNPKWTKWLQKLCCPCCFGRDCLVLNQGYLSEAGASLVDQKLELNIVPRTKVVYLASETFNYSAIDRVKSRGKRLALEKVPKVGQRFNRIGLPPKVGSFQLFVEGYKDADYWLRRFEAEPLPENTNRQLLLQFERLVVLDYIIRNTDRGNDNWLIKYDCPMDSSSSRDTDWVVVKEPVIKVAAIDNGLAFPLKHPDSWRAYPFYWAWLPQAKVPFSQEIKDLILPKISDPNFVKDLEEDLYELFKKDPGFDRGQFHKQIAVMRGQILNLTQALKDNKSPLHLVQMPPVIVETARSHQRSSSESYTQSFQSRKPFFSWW
Chain of Tyrosine-protein kinase BTK (Homo sapiens) (Q06187 whole entry): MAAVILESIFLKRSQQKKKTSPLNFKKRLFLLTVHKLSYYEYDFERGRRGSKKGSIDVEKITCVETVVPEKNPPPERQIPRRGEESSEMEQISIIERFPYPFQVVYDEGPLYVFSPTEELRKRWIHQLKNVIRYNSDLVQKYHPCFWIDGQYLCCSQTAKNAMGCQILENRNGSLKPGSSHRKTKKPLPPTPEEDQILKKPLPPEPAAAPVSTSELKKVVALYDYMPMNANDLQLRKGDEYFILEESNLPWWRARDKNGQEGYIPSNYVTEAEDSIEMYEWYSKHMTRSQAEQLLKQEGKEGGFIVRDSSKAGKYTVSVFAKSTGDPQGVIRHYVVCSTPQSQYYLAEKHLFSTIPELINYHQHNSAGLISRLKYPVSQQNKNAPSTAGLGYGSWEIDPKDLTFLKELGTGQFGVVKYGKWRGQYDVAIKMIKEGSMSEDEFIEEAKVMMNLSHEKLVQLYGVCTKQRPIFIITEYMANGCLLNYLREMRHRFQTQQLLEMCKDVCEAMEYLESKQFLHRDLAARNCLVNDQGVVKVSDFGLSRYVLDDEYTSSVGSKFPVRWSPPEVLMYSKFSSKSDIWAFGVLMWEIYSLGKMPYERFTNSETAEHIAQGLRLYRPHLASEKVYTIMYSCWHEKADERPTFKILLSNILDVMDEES
Chain of Dual specificity protein kinase CLK1 (Homo sapiens) (P49759 whole entry, looked up): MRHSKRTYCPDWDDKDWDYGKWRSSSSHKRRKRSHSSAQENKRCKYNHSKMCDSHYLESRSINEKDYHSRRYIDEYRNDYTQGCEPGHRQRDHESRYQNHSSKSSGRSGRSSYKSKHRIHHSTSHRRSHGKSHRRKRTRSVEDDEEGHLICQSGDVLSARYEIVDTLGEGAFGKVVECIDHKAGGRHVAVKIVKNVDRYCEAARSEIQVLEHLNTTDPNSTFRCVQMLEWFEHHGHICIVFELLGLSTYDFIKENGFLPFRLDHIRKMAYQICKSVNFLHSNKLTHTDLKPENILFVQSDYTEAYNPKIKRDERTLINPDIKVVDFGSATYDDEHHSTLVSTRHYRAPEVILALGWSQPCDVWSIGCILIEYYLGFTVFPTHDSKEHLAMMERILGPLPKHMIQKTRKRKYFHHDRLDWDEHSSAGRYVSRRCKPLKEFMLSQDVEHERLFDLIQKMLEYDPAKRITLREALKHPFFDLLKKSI

Q: For `CC(C)(O)CNc1ncc(-c2ccnc(Nc3ccnc(Cl)c3)n2)c(CC2CC2)n1`, which Activity [1] is on record?
A: Its Activity is 114%.

Q: And the inhibition [2]?
A: The inhibition was “inactive”.

Q: And the IC50 [3]?
A: The IC50 was 21.4 µM.

Q: And the inhibition [4]?
A: The inhibition was “inactive”.

Q: And the Activity [5]?
A: The Activity was 99%.

Q: What about the inhibition [6] of the same compound?
A: The inhibition was “inactive”.

Q: And the inhibition [7]?
A: Its inhibition is “inactive”.

Q: What about the Activity [8] of the same compound?
A: The Activity was 132%.

Q: And the inhibition [9]?
A: The inhibition was “inactive”.

Q: And the Activity [10]?
A: The Activity was 113%.

Q: What about the inhibition [11] of the same compound?
A: Its inhibition is “inactive”.

Q: And the inhibition [12]?
A: Its inhibition is “inactive”.

Q: And the inhibition [13]?
A: Its inhibition is “inactive”.

Q: What about the inhibition [14] of the same compound?
A: The inhibition was “inactive”.

Q: What about the inhibition [15] of the same compound?
A: Its inhibition is “inactive”.

Q: And the inhibition [16]?
A: The inhibition was “inactive”.

Q: And the inhibition [17]?
A: Its inhibition is “inactive”.

Q: What about the inhibition [18] of the same compound?
A: The inhibition was “inactive”.

Q: And the Activity [19]?
A: The Activity was 109%.

Q: What about the inhibition [20] of the same compound?
A: The inhibition was “inactive”.

Q: What about the inhibition [21] of the same compound?
A: Its inhibition is “inactive”.

Q: What about the Activity [22] of the same compound?
A: Its Activity is 79%.

Q: What about the Activity [23] of the same compound?
A: Its Activity is 103%.

Q: What about the inhibition [24] of the same compound?
A: Its inhibition is “inactive”.

Q: What about the IC50 [25] of the same compound?
A: Its IC50 is over 10 µM.
